Experimental data published in the OligoGym collection.
Oligonucleotides are given in HELM: sugar(base)linkage, 5' to 3'; d 2'-deoxyribose, r ribose, m 2'-O-methylribose, p phosphate. ss, as = sense and antisense strand

target: CDC34; assay: reporter assay of Huesken 2005; details: siRNA
Further: test concentration or dose not given here.

Question: “RNA1{r(G)p.r(A)p.r(A)p.r(G)p.r(G)p.r(A)p.r(U)p.r(C)p.r(G)p.r(G)p.r(G)p.r(A)p.r(G)p.r(U)p.r(A)p.r(C)p.r(A)p.r(C)p.r(A)p.d(T)p.d(T)}|RNA2{r(U)p.r(G)p.r(U)p.r(G)p.r(U)p.r(A)p.r(C)p.r(U)p.r(C)p.r(C)p.r(C)p.r(G)p.r(A)p.r(U)p.r(C)p.r(C)p.r(U)p.r(U)p.r(C)p.d(C)p.d(C)}$$$RNA1{StrandType:ss}|RNA2{StrandType:as}$” was tested. Which normalised inhibition (eCFP-eYFP dual reporter) did it give?
Answer: 74.3%

Question: For “RNA1{r(G)p.r(A)p.r(C)p.r(C)p.r(A)p.r(U)p.r(U)p.r(C)p.r(U)p.r(C)p.r(C)p.r(U)p.r(G)p.r(A)p.r(G)p.r(U)p.r(G)p.r(U)p.r(G)p.d(T)p.d(T)}|RNA2{r(C)p.r(A)p.r(C)p.r(A)p.r(C)p.r(U)p.r(C)p.r(A)p.r(G)p.r(G)p.r(A)p.r(G)p.r(A)p.r(A)p.r(U)p.r(G)p.r(G)p.r(U)p.r(C)p.d(C)p.d(T)}$$$RNA1{StrandType:ss}|RNA2{StrandType:as}$”, which normalised inhibition (eCFP-eYFP dual reporter) is on record?
Answer: 44.9%

Question: “RNA1{r(G)p.r(A)p.r(C)p.r(G)p.r(A)p.r(G)p.r(G)p.r(G)p.r(C)p.r(G)p.r(A)p.r(U)p.r(C)p.r(U)p.r(A)p.r(U)p.r(A)p.r(C)p.r(A)p.d(T)p.d(T)}|RNA2{r(U)p.r(G)p.r(U)p.r(A)p.r(U)p.r(A)p.r(G)p.r(A)p.r(U)p.r(C)p.r(G)p.r(C)p.r(C)p.r(C)p.r(U)p.r(C)p.r(G)p.r(U)p.r(C)p.d(C)p.d(A)}$$$RNA1{StrandType:ss}|RNA2{StrandType:as}$” was tested. Which normalised inhibition (eCFP-eYFP dual reporter) did it give?
Answer: 64.3%

Question: How did the normalised inhibition (eCFP-eYFP dual reporter) turn out when “RNA1{r(G)p.r(A)p.r(C)p.r(G)p.r(A)p.r(G)p.r(G)p.r(G)p.r(C)p.r(U)p.r(C)p.r(A)p.r(G)p.r(A)p.r(C)p.r(C)p.r(U)p.r(C)p.r(U)p.d(T)p.d(T)}|RNA2{r(A)p.r(G)p.r(A)p.r(G)p.r(G)p.r(U)p.r(C)p.r(U)p.r(G)p.r(A)p.r(G)p.r(C)p.r(C)p.r(C)p.r(U)p.r(C)p.r(G)p.r(U)p.r(C)p.d(G)p.d(G)}$$$RNA1{StrandType:ss}|RNA2{StrandType:as}$” was run?
Answer: 51.7%

Question: With “RNA1{r(G)p.r(A)p.r(C)p.r(U)p.r(A)p.r(C)p.r(C)p.r(C)p.r(A)p.r(U)p.r(A)p.r(C)p.r(U)p.r(C)p.r(U)p.r(C)p.r(C)p.r(A)p.r(C)p.d(T)p.d(T)}|RNA2{r(G)p.r(U)p.r(G)p.r(G)p.r(A)p.r(G)p.r(A)p.r(G)p.r(U)p.r(A)p.r(U)p.r(G)p.r(G)p.r(G)p.r(U)p.r(A)p.r(G)p.r(U)p.r(C)p.d(G)p.d(A)}$$$RNA1{StrandType:ss}|RNA2{StrandType:as}$” as the substance, how does the normalised inhibition (eCFP-eYFP dual reporter) read?
Answer: 65.9%

Question: “RNA1{r(G)p.r(A)p.r(G)p.r(U)p.r(A)p.r(C)p.r(U)p.r(G)p.r(C)p.r(G)p.r(U)p.r(G)p.r(A)p.r(A)p.r(G)p.r(A)p.r(C)p.r(C)p.r(A)p.d(T)p.d(T)}|RNA2{r(U)p.r(G)p.r(G)p.r(U)p.r(C)p.r(U)p.r(U)p.r(C)p.r(A)p.r(C)p.r(G)p.r(C)p.r(A)p.r(G)p.r(U)p.r(A)p.r(C)p.r(U)p.r(C)p.d(G)p.d(G)}$$$RNA1{StrandType:ss}|RNA2{StrandType:as}$” was tested. Which normalised inhibition (eCFP-eYFP dual reporter) did it give?
Answer: 73.7%

Question: With “RNA1{r(G)p.r(A)p.r(U)p.r(C)p.r(U)p.r(A)p.r(U)p.r(A)p.r(C)p.r(A)p.r(A)p.r(C)p.r(U)p.r(G)p.r(G)p.r(G)p.r(A)p.r(G)p.r(G)p.d(T)p.d(T)}|RNA2{r(C)p.r(C)p.r(U)p.r(C)p.r(C)p.r(C)p.r(A)p.r(G)p.r(U)p.r(U)p.r(G)p.r(U)p.r(A)p.r(U)p.r(A)p.r(G)p.r(A)p.r(U)p.r(C)p.d(G)p.d(C)}$$$RNA1{StrandType:ss}|RNA2{StrandType:as}$” as the substance, how does the normalised inhibition (eCFP-eYFP dual reporter) read?
Answer: 41.7%

Question: For “RNA1{r(G)p.r(A)p.r(U)p.r(G)p.r(U)p.r(A)p.r(C)p.r(A)p.r(G)p.r(G)p.r(A)p.r(A)p.r(G)p.r(U)p.r(G)p.r(G)p.r(A)p.r(A)p.r(A)p.d(T)p.d(T)}|RNA2{r(U)p.r(U)p.r(U)p.r(C)p.r(C)p.r(A)p.r(C)p.r(U)p.r(U)p.r(C)p.r(C)p.r(U)p.r(G)p.r(U)p.r(A)p.r(C)p.r(A)p.r(U)p.r(C)p.d(A)p.d(C)}$$$RNA1{StrandType:ss}|RNA2{StrandType:as}$”, which normalised inhibition (eCFP-eYFP dual reporter) is on record?
Answer: 82.9%

Question: Which normalised inhibition (eCFP-eYFP dual reporter) does the source give for “RNA1{r(G)p.r(C)p.r(C)p.r(C)p.r(G)p.r(A)p.r(C)p.r(G)p.r(A)p.r(G)p.r(G)p.r(G)p.r(C)p.r(U)p.r(C)p.r(A)p.r(G)p.r(A)p.r(C)p.d(T)p.d(T)}|RNA2{r(G)p.r(U)p.r(C)p.r(U)p.r(G)p.r(A)p.r(G)p.r(C)p.r(C)p.r(C)p.r(U)p.r(C)p.r(G)p.r(U)p.r(C)p.r(G)p.r(G)p.r(G)p.r(C)p.d(G)p.d(C)}$$$RNA1{StrandType:ss}|RNA2{StrandType:as}$” here?
Answer: 33.6%

Question: With “RNA1{r(G)p.r(C)p.r(G)p.r(A)p.r(U)p.r(C)p.r(U)p.r(A)p.r(U)p.r(A)p.r(C)p.r(A)p.r(A)p.r(C)p.r(U)p.r(G)p.r(G)p.r(G)p.r(A)p.d(T)p.d(T)}|RNA2{r(U)p.r(C)p.r(C)p.r(C)p.r(A)p.r(G)p.r(U)p.r(U)p.r(G)p.r(U)p.r(A)p.r(U)p.r(A)p.r(G)p.r(A)p.r(U)p.r(C)p.r(G)p.r(C)p.d(C)p.d(C)}$$$RNA1{StrandType:ss}|RNA2{StrandType:as}$” as the substance, how does the normalised inhibition (eCFP-eYFP dual reporter) read?
Answer: 74%

Question: For “RNA1{r(G)p.r(C)p.r(G)p.r(C)p.r(C)p.r(U)p.r(C)p.r(A)p.r(A)p.r(G)p.r(U)p.r(U)p.r(C)p.r(C)p.r(C)p.r(C)p.r(A)p.r(U)p.r(C)p.d(T)p.d(T)}|RNA2{r(G)p.r(A)p.r(U)p.r(G)p.r(G)p.r(G)p.r(G)p.r(A)p.r(A)p.r(C)p.r(U)p.r(U)p.r(G)p.r(A)p.r(G)p.r(G)p.r(C)p.r(G)p.r(C)p.d(G)p.d(C)}$$$RNA1{StrandType:ss}|RNA2{StrandType:as}$”, which normalised inhibition (eCFP-eYFP dual reporter) is on record?
Answer: 58%

Question: “RNA1{r(G)p.r(C)p.r(U)p.r(G)p.r(C)p.r(C)p.r(C)p.r(U)p.r(C)p.r(A)p.r(G)p.r(A)p.r(G)p.r(A)p.r(G)p.r(G)p.r(U)p.r(G)p.r(G)p.d(T)p.d(T)}|RNA2{r(C)p.r(C)p.r(A)p.r(C)p.r(C)p.r(U)p.r(C)p.r(U)p.r(C)p.r(U)p.r(G)p.r(A)p.r(G)p.r(G)p.r(G)p.r(C)p.r(A)p.r(G)p.r(C)p.d(T)p.d(C)}$$$RNA1{StrandType:ss}|RNA2{StrandType:as}$” was tested. Which normalised inhibition (eCFP-eYFP dual reporter) did it give?
Answer: 39.3%

Question: How did the normalised inhibition (eCFP-eYFP dual reporter) turn out when “RNA1{r(G)p.r(G)p.r(A)p.r(A)p.r(G)p.r(C)p.r(A)p.r(G)p.r(G)p.r(U)p.r(C)p.r(C)p.r(U)p.r(G)p.r(G)p.r(G)p.r(G)p.r(A)p.r(C)p.d(T)p.d(T)}|RNA2{r(G)p.r(U)p.r(C)p.r(C)p.r(C)p.r(C)p.r(A)p.r(G)p.r(G)p.r(A)p.r(C)p.r(C)p.r(U)p.r(G)p.r(C)p.r(U)p.r(U)p.r(C)p.r(C)p.d(G)p.d(G)}$$$RNA1{StrandType:ss}|RNA2{StrandType:as}$” was run?
Answer: 58.4%

Question: For “RNA1{r(G)p.r(G)p.r(A)p.r(A)p.r(G)p.r(G)p.r(A)p.r(U)p.r(C)p.r(G)p.r(G)p.r(G)p.r(A)p.r(G)p.r(U)p.r(A)p.r(C)p.r(A)p.r(C)p.d(T)p.d(T)}|RNA2{r(G)p.r(U)p.r(G)p.r(U)p.r(A)p.r(C)p.r(U)p.r(C)p.r(C)p.r(C)p.r(G)p.r(A)p.r(U)p.r(C)p.r(C)p.r(U)p.r(U)p.r(C)p.r(C)p.d(C)p.d(C)}$$$RNA1{StrandType:ss}|RNA2{StrandType:as}$”, which normalised inhibition (eCFP-eYFP dual reporter) is on record?
Answer: 56.5%
